Results: patent US12077503B2, “Substituted cyclic amides and their use as herbicides” (FMC CORPORATION, priority 2015, dated 2024)

Tests used:
Type in all cases: in vivo
rice (Oryza sativa) = experiment: Test C flooded paddy test; conditions: Flood; for Plant response rating (scale of 0 to 100), Rice: 0 is no effect, 100 is complete control
Method in brief: (§1)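 Rice, small-flower umbrella sedge, ducksalad and barnyardgrass at the 2-leaf stage were flooded to 3 cm, and compound was applied into the paddy water. After 13 to 15 d in a greenhouse, plants were rated visually against controls on a 0 (no effect) to 100 (complete control) scale.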

[1] = system: sedge, umbrella (small-flower umbrella sedge, Cyperus difformis); experiment: Test C flooded paddy test; conditions: Flood; for Plant response rating (scale of 0 to 100), Sedge, Umbrella: 0 is no effect, 100 is complete control
Method in brief: as §1

[2] = system: ducksalad (Heteranthera limosa); experiment: Test C flooded paddy test; conditions: Flood; for Plant response rating (scale of 0 to 100), Ducksalad: 0 is no effect, 100 is complete control
Method in brief: as §1

[3] = system: velvetleaf (Abutilon theophrasti); experiment: Test G Post-Emergence Protocol; conditions: Abutilon theophrasti, post-emergence, 312 h; for pest or weed control at 15.625 g/ha: 15.625 g ai/ha, evaluated after 13 days (100=total damage to plant; 0=no damage to plant), read-out: Velvetleaf damage rating; for pest or weed control at 62.5 g/ha: 62.5 g ai/ha, read-out: Velvetleaf damage rating (100=total damage to plant; 0=no damage to plant); for pest or weed control at 62.5 g/ha / pest or weed control at 250 g/ha: evaluated after 13 days; for pest or weed control at 250 g/ha: 250 g ai/ha, read-out: damage to plant, Velvetleaf (100=total damage to plant; 0=no damage to plant)
Method: (§2) Seeds of corn (Zea mays), giant foxtail (Setaria faberi), barnyardgrass (Echinochloa crus-galli), ivy-leaved morning glory (Ipomoea hederacea), redroot pigweed (Amaranthus retroflexus) and velvetleaf (Abutilon theophrasti) were sown in standard soil in pots. After cultivation for 8 days under controlled conditions in a glasshouse (at 24/16° C., day/night; 14 hours light; 65% humidity), the plants were sprayed with an aqueous spray solution derived from the formulation of the technical active ingredient in acetone/water (50:50) solution containing 0.5% Tween 20 (polyoxyethylene sorbitan monolaurate, CAS RN 9005-64-5) to give a final dose of 15.625, 62.5 or 250 g/ha of test compound.
(§3) The test plants were then grown on under controlled conditions in a glasshouse (at 24/16° C., day/night; 14 hours light; 65% humidity) and watered twice daily. After 13 days the test was evaluated (100=total damage to plant; 0=no damage to plant). A dash (-) means no test result.

[4] = system: redroot pigweed (Amaranthus retroflexus); experiment: Test G Post-Emergence Protocol; conditions: Amaranthus retroflexus, post-emergence, 312 h; for pest or weed control at 15.625 g/ha: 15.625 g ai/ha, evaluated after 13 days (100=total damage to plant; 0=no damage to plant), read-out: Pigweed, Redroot damage rating; for pest or weed control at 62.5 g/ha: 62.5 g ai/ha, read-out: Pigweed, Redroot damage rating (100=total damage to plant; 0=no damage to plant); for pest or weed control at 62.5 g/ha / pest or weed control at 250 g/ha: evaluated after 13 days; for pest or weed control at 250 g/ha: 250 g ai/ha, read-out: damage to plant, Pigweed, Redroot (100=total damage to plant; 0=no damage to plant)
Method: as §2, §3

[5] = system: giant foxtail (Setaria faberi); experiment: Test G Post-Emergence Protocol; conditions: Setaria faberi, post-emergence, 312 h; for pest or weed control at 15.625 g/ha: 15.625 g ai/ha, evaluated after 13 days (100=total damage to plant; 0=no damage to plant), read-out: Foxtail, Giant damage rating; for pest or weed control at 62.5 g/ha: 62.5 g ai/ha, read-out: Foxtail, Giant damage rating (100=total damage to plant; 0=no damage to plant); for pest or weed control at 62.5 g/ha / pest or weed control at 250 g/ha: evaluated after 13 days; for pest or weed control at 250 g/ha: 250 g ai/ha, read-out: damage to plant, Foxtail, Giant (100=total damage to plant; 0=no damage to plant)
Method: as §2, §3

corn (Zea mays) = experiment: Test G Post-Emergence Protocol; conditions: Zea mays, post-emergence, 312 h; for plant injury at 15.625 g/ha: 15.625 g ai/ha, evaluated after 13 days (100=total damage to plant; 0=no damage to plant), read-out: Corn damage rating; for plant injury at 62.5 g/ha: 62.5 g ai/ha, read-out: Corn damage rating (100=total damage to plant; 0=no damage to plant); for plant injury at 62.5 g/ha / plant injury at 250 g/ha: evaluated after 13 days; for plant injury at 250 g/ha: 250 g ai/ha, read-out: damage to plant, Corn (100=total damage to plant; 0=no damage to plant)
Method: as §2, §3

[6] = system: ivy-leaved morning glory (Ipomoea hederacea); experiment: Test G Post-Emergence Protocol; conditions: Ipomoea, post-emergence, 312 h; for pest or weed control at 15.625 g/ha: 15.625 g ai/ha, evaluated after 13 days (100=total damage to plant; 0=no damage to plant), read-out: Morningglory, Ivy-leaved damage rating; for pest or weed control at 62.5 g/ha: 62.5 g ai/ha, read-out: Morningglory, Ivy-leaved damage rating (100=total damage to plant; 0=no damage to plant); for pest or weed control at 62.5 g/ha / pest or weed control at 250 g/ha: evaluated after 13 days; for pest or weed control at 250 g/ha: 250 g ai/ha, read-out: damage to plant, Morningglory, Ivy-leaved (100=total damage to plant; 0=no damage to plant)
Method: as §2, §3

[7] = system: barnyardgrass (Echinochloa crus-galli); experiment: Test G Post-Emergence Protocol; conditions: Echinochloa crus-galli, post-emergence, 312 h; for pest or weed control at 15.625 g/ha: 15.625 g ai/ha, evaluated after 13 days (100=total damage to plant; 0=no damage to plant), read-out: Barnyardgrass damage rating; for pest or weed control at 62.5 g/ha: 62.5 g ai/ha, read-out: Barnyardgrass damage rating (100=total damage to plant; 0=no damage to plant); for pest or weed control at 62.5 g/ha / pest or weed control at 250 g/ha: evaluated after 13 days; for pest or weed control at 250 g/ha: 250 g ai/ha, read-out: damage to plant, Barnyardgrass (100=total damage to plant; 0=no damage to plant)
Method: as §2, §3

[8] = 31 g ai/ha, scale 0 to 100 (0 no effect, 100 complete control), 13 to 15 d

SMILES	pest or weed control at 15.625 g/ha [3] [%]	pest or weed control at 62.5 g/ha [3] [%]	pest or weed control at 250 g/ha [3] [%]	pest or weed control at 15.625 g/ha [4] [%]	pest or weed control at 62.5 g/ha [4] [%]	pest or weed control at 250 g/ha [4] [%]	pest or weed control at 15.625 g/ha [5] [%]	pest or weed control at 62.5 g/ha [5] [%]	pest or weed control at 250 g/ha [5] [%]	plant injury at 15.625 g/ha (corn (Zea mays)) [%]	plant injury at 62.5 g/ha (corn (Zea mays)) [%]	plant injury at 250 g/ha (corn (Zea mays)) [%]	pest or weed control at 15.625 g/ha [6] [%]	pest or weed control at 62.5 g/ha [6] [%]	pest or weed control at 250 g/ha [6] [%]	pest or weed control at 15.625 g/ha [7] [%]	pest or weed control at 62.5 g/ha [7] [%]	pest or weed control at 250 g/ha [7] [%]	further results
CN1CC(c2cc(F)cc(F)c2)C(C(=O)Nc2cccc(F)c2F)C1=O (stereo not drawn) [Compound 644]	–	–	–	–	–	–	–	–	–	–	–	–	–	–	–	–	–	–	Plant response rating, Rice (rice (Oryza sativa); [8]): 0; Plant response rating (scale of 0 to 100), Rice (rice (Oryza sativa); 62 g ai/ha): 0; Plant response rating (scale of 0 to 100), Rice (rice (Oryza sativa); 125 g ai/ha): 0; Plant response rating (scale of 0 to 100), Rice (rice (Oryza sativa); 250 g ai/ha): 0; Plant response rating, Sedge, Umbrella [1, 8]: 0; Plant response rating (scale of 0 to 100), Sedge, Umbrella ([1]; 62 g ai/ha): 0; Plant response rating (scale of 0 to 100), Sedge, Umbrella ([1]; 125 g ai/ha): 0; Plant response rating (scale of 0 to 100), Sedge, Umbrella ([1]; 250 g ai/ha): 0; Plant response rating, Ducksalad [2, 8]: 55; Plant response rating (scale of 0 to 100), Ducksalad ([2]; 62 g ai/ha): 65; Plant response rating (scale of 0 to 100), Ducksalad ([2]; 125 g ai/ha): 100; Plant response rating (scale of 0 to 100), Ducksalad ([2]; 250 g ai/ha): 100
CN1C[C@H](c2ccc(C(F)(F)F)cc2)[C@@H](C(=O)Nc2cccnc2F)C1=O [Compound 1396]	40	30	60	70	70	80	80	80	80	70	80	70	40	60	60	80	80	80	–
CN1C[C@H](c2ccc(Cl)cc2)[C@@H](C(=O)Nc2cccc(F)n2)C1=O [Compound 1399]	0	40	40	0	20	60	60	80	80	0	0	30	10	30	70	40	70	80	–
